Assay results: patent US20110207726A1, “Inhibitors of Human Cathepsin L, Cathepsin B, and Cathepsin S” (The Trustees of the University of Pennsylvania, priority 2008, published 2011)
Where two headings read alike, the source gives them in different places.

Columns and labels:
[1] = target: T1, human liver cathepsin L (Homo sapiens, UniProt P07711); assay: Cathepsin L assay, IC50 determination; format: biochemical
T1 construct: 8.7 ng/mL human liver cathepsin L (Calbiochem 219402); purchased Calbiochem 219402; host or cells: human liver
Procedure: Assay buffer consisted of 20 mM sodium acetate, 1 mM ethylenediaminetetraacetic acid (EDTA) and 5 mM cysteine, pH 5.5. Cathepsin L was incubated in assay buffer for 30 minutes prior to dispensing into wells to allow for efficient reduction of the active site cysteine required for full enzymatic activity.
Upon activation, cathepsin L (300 pM, 8.7 ng/mL) was incubated with 1 microM Z-Phe-Arg-AMC substrate (Sigma C9521) and test compound in […] of assay buffer for 1 hour at room temperature.
All reactions were performed in 20 mM sodium acetate buffer containing 5 mM cysteine and 1 mM EDTA, pH 5.5. Reaction progress was monitored using the Envision microplate reader. IC50 values were measured in triplicate.

[2] = Stability in DMSO and cathepsin L assay buffer; format: physicochemical
Source text: Some variability in IC50 values determined for Compound (iii) prompted us to explore the stability of both Compound No. 1 and Compound (iii) in solvents relevant to the bioassay.

[3] = target: T2, Human liver cathepsin B (Homo sapiens, UniProt P07858); assay: Cathepsin B assay, IC50 determination; format: biochemical
T2 construct: Human liver cathepsin B (Calbiochem 219362, 65 ng/mL); purchased Calbiochem 219362; host or cells: human liver
Procedure: (§1) Human spleen cathepsin S (Calbiochem 219344, 40 ng/mL) was assayed using 15 microM Z-Phe-Arg-AMC substrate. Human liver cathepsin B (Calbiochem 219362, 65 ng/mL) was assayed using 15 microM Z-Arg-Arg-AMC substrate (Bachem I-1135). All reactions were performed in 20 mM sodium acetate buffer containing 1 mM EDTA and 5 mM cysteine, pH 5.5.
(§2) Compounds were serially diluted in DMSO and transferred into a 96-well Corning 3686 assay microplate to give a 16-point two-fold serial dilution dose response ranging from 25 microM to 760 pM. Human liver cathepsin L (Calbiochem 219402) was activated by incubating with assay buffer for 30 min. Upon activation, cathepsin L (300 pM, 8.7 ng/mL) was incubated with 1 microM Z-Phe-Arg-AMC substrate (Sigma C9521) and test compound in […] of assay buffer for 1 hour at room temperature. Fluorescence of AMC released by enzyme-catalyzed hydrolysis of Z-Phe-Arg-AMC was read on a PerkinElmer Envision microplate reader (excitation 355 nm, emission 460 nm). Data were scaled using internal controls and fitted to a four-parameter logistic model (IDBS XLfit equation 205) to obtain IC50 values in triplicate.
(§3) Compound No. 1 was assayed for inhibition against papain and cathepsins B, G, K, S, and V. Papain from Carica papaya (Calbiochem 5125, 11 ng/mL), human cathepsin K (Calbiochem 342001, 35 ng/mL), human spleen cathepsin S (Calbiochem 219344, 40 ng/mL), and human cathepsin V (Calbiochem 219467, 39 ng/ml) were assayed using Z-Phe-Arg-AMC substrate at 20 μM, 20 μM, 15 μM, and 1 μM, respectively. Human liver cathepsin B (Calbiochem 219362, 65 ng/mL) was assayed using 15 μM Z-Arg-Arg-AMC substrate (Bachem I-1135). Human neutrophil cathepsin G (Calbiochem 219373, 4.2 μg/mL) was assayed using 15 μM Suc-Ala-Ala-Pro-Phe-AMC substrate (Sigma S9761). All reactions were performed in 20 mM sodium acetate buffer containing 5 mM cysteine and 1 mM EDTA, pH 5.5. Reaction progress was monitored using the Envision microplate reader. IC50 values were measured in triplicate.

[4] = target: T3, Human spleen cathepsin S (Homo sapiens, UniProt P25774); assay: Cathepsin S assay, IC50 determination; format: biochemical
T3 construct: Human spleen cathepsin S (Calbiochem 219344, 40 ng/mL); purchased Calbiochem 219344; host or cells: human spleen
Procedure: as §1, §2, §3

T1 sequence (P07711 114-288 limits assumed): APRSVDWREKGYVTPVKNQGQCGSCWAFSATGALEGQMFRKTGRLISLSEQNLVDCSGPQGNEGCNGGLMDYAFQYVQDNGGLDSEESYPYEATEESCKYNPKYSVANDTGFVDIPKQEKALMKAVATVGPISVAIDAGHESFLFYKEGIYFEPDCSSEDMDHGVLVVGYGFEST
T1 sequence (P07711 292-333 limits assumed): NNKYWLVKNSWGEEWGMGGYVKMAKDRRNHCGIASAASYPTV
T3 sequence (P25774 115-331): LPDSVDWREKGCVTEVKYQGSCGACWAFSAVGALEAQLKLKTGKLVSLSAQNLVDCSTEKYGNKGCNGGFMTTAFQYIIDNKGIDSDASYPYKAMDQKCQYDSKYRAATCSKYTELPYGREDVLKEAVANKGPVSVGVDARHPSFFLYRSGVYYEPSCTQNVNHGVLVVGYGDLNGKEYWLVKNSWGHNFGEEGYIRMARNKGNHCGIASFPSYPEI

SMILES	IC50 ([1]; no preincubation of enzyme and inhibitor, read-out: IC50 against cathepsin L (no preincubation)) [µM]	stability in DMSO [2]	IC50 ([3]; Table 1, read-out: IC50 Cat B) [µM]	IC50 ([4]; Table 1, read-out: IC50 Cat S) [µM]	IC50 ([1]; Table 1, read-out: IC50 Cat L) [µM]	IC50 ([3]; Tables 2-11, read-out: Cat B) [µM]	IC50 ([4]; Tables 2-11, read-out: Cat S) [µM]	IC50 ([1]; Tables 2-11, read-out: Cat L) [µM]
CCc1ccccc1NC(=O)CSC(=O)NNC(=O)[C@@H](N)Cc1c[nH]c2ccccc12 [Compound (iii)]	0.133	unstable	–	–	–	–	–	–
CCc1ccccc1NC(=O)CSC(=O)NNC(=O)[C@@H](Cc1c[nH]c2ccccc12)NC(=O)OC(C)(C)C [Compound No. 16]	–	–	> 25	> 25	> 25	–	–	–
CC(C)(C)OC(=O)N[C@@H](COCc1ccccc1)C(=O)NNC(=O)SCC(=O)N1CCc2ccccc2C1 [Compound No. 50]	–	–	9.28	0.95	0.37	–	–	–
O=C(CCc1c[nH]c2ccccc12)NNC(=O)CCc1c[nH]c2ccccc12 [Compound No. 114]	–	–	–	–	–	≥ 25	≥ 25	≥ 25
CC(C)(C)OC(=O)N[C@@H](Cc1c[nH]c2ccccc12)C(=O)NNC(=O)SCC(=O)N1CCCc2ccccc21 [Compound No. 5]	–	–	4.46	0.93	0.096	–	–	–
Cc1ccc(S(=O)(=O)NNC(=O)[C@H](Cc2ccc(OC(=O)OC(C)(C)C)cc2)NC(=O)OC(C)(C)C)cc1 [Compound No. 122]	–	–	–	–	–	≥ 25	≥ 25	≥ 25
CCc1ccccc1NC(=O)CSC(=O)NNC(=O)C[C@@H](Cc1c[nH]c2ccccc12)NC(=O)OC(C)(C)C [Compound No. 86]	–	–	> 25	> 25	> 25	–	–	–
CC(C)(C)OC(=O)N1CCC[C@H]1CC(=O)NNC(=O)SCC(=O)N1CCCc2ccccc21 [Compound No. 81]	–	–	> 25	> 25	> 25	–	–	–
CCOC(=O)c1ccc(NC(=O)CSC(=O)NNC(=O)[C@H](Cc2c[nH]c3ccccc23)NC(=O)OC(C)(C)C)cc1 [Compound No. 9]	–	–	> 25	0.58	0.057	–	–	–
CCc1ccccc1NC(=O)CSC(=O)NNC(=O)C[C@@H](COCc1ccccc1)NC(=O)OC(C)(C)C [Compound No. 84]	–	–	> 25	15.2	> 25	–	–	–
CC(C)C[C@H](NC(=O)OC(C)(C)C)C(=O)NNC(=O)SCC(=O)N1CCCc2ccccc21 [Compound No. 31]	–	–	2.72	1.64	1.64	–	–	–
CC(C)(C)OC(=O)N[C@@H](Cc1c[nH]c2ccccc12)C(=O)NNC(=O)SCC(=O)N1CCOc2ccccc21 [Compound No. 10]	–	–	3.23	0.95	0.22	–	–	–
CSCC[C@H](NC(=O)OC(C)(C)C)C(=O)NNC(=O)c1ccccc1 [Compound No. 116]	–	–	–	–	–	≥ 25	≥ 25	≥ 25
CC(C)(C)OC(=O)N[C@@H](Cc1c[nH]c2ccccc12)C(=O)NNC(=O)CCC(=O)N1CCCc2ccccc21 [Compound No. 115]	–	–	–	–	–	≥ 25	≥ 25	≥ 25
CC(C)(C)OC(=O)N[C@@H](COCc1ccccc1)C(=O)NNC(=O)SCC(=O)N1CCCc2ccccc21 [Compound No. 47]	–	–	13.2	2.64	1.51	–	–	–
CCOC(=O)NNC(=O)[C@H](Cc1c[nH]c2ccccc12)NC(=O)OC(C)(C)C [Compound No. 95]	–	–	–	–	–	≥ 25	≥ 25	≥ 25

SMILES	IC50 ([1]; no preincubation of enzyme and inhibitor, read-out: IC50 against cathepsin L (no preincubation)) [µM]	stability in DMSO [2]	IC50 ([3]; Table 1, read-out: IC50 Cat B) [µM]	IC50 ([4]; Table 1, read-out: IC50 Cat S) [µM]	IC50 ([1]; Table 1, read-out: IC50 Cat L) [µM]	IC50 ([3]; Tables 2-11, read-out: Cat B) [µM]	IC50 ([4]; Tables 2-11, read-out: Cat S) [µM]	IC50 ([1]; Tables 2-11, read-out: Cat L) [µM]
CCc1ccccc1NC(=O)CSC(=O)NNC(=O)[C@@H](C)CO [Compound No. 69]	–	–	> 25	> 25	> 25	–	–	–
CCc1ccccc1NC(=O)CSC(=O)NNC(=O)[C@@H](COCc1ccccc1)NC(=O)OC(C)(C)C [Compound No. 48]	–	–	> 25	4.42	15.4	–	–	–
C[C@@H](CC(=O)NNC(=O)SCC(=O)N1CCCc2ccccc21)NC(=O)OC(C)(C)C [Compound No. 75]	–	–	> 25	> 25	> 25	–	–	–
CCc1ccccc1NC(=O)CSC(=O)NNC(=O)C[C@H](COCc1ccccc1)NC(=O)OC(C)(C)C [Compound No. 82]	–	–	> 25	4.47	> 25	–	–	–
CC(C)(C)OC(=O)N[C@@H](Cc1c[nH]c2ccccc12)C(=O)N/N=C/c1ccccc1 [Compound No. 123]	–	–	–	–	–	≥ 25	≥ 25	≥ 25
CC(C)(C)OC(=O)N[C@H](COCc1ccccc1)CC(=O)NNC(=O)SCC(=O)N1CCCc2ccccc21 [Compound No. 85]	–	–	> 25	> 25	> 25	–	–	–
CC(C)(C)OC(=O)N[C@@H](Cc1c[nH]c2ccccc12)C(=O)NNC(=O)SC1CCN(c2ccccc2)C1=O (some centres unmarked) [Compound No. 14]	–	–	14	2.07	1.05	–	–	–
CC(C)(C)OC(=O)N[C@@H](COCc1ccccc1)C(=O)NNC(=O)SCC(=O)Nc1ccccc1[N+](=O)[O-] [Compound No. 55]	–	–	5.07	1.44	0.7	–	–	–
CC(C)(C)OC(=O)N[C@@H](COCc1ccccc1)CC(=O)NNC(=O)SCC(=O)N1CCCc2ccccc21 [Compound No. 83]	–	–	> 25	5.95	2.12	–	–	–
CC(C)(C)OC(=O)N[C@@H](Cc1ccc(OCc2ccccc2)cc1)C(=O)NNC(=O)SCC(=O)N1CCc2ccccc2C1 [Compound No. 39]	–	–	3.19	1.31	0.086	–	–	–
CCc1ccccc1NC(=O)CSC(=O)NNC(=O)C[C@@H]1CCCN1C(=O)OC(C)(C)C [Compound No. 80]	–	–	> 25	> 25	> 25	–	–	–
CC(C)(C)OC(=O)N[C@@H](Cc1ccc(OC(=O)OC(C)(C)C)cc1)C(=O)NNC(=O)C(=O)N1CCc2ccccc2C1 [Compound No. 127]	–	–	–	–	–	≥ 25	≥ 25	≥ 25
CCc1ccccc1NC(=O)CSC(=O)NNC(=O)C[C@@H](NC(=O)OC(C)(C)C)C(C)C [Compound No. 78]	–	–	11.5	> 25	7.52	–	–	–
CC(C)(C)OC(=O)N[C@@H](Cc1c[nH]c2ccccc12)C(=O)NNC(=O)OCc1ccccc1 [Compound No. 94]	–	–	–	–	–	≥ 25	4.1	0.806
CC(C)(C)OC(=O)N[C@@H](Cc1c[nH]c2ccccc12)C(=O)NNC(=O)SCC(=O)NCCc1ccccc1 [Compound No. 7]	–	–	6.59	0.32	0.029	–	–	–
